Results published in US20070225245A1, “Viral vector driven mutant bacterial cytosine deaminase gene and uses thereof” (priority 1998, published 2007).
Converted amounts (≈) assume the structure as drawn.

Key:
MIA PaCa-2 xenografts = assay: Subcutaneous human pancreatic tumor xenograft, tumor growth; type: in vivo, athymic nude mice
Procedure: Treatment was started at the time of established tumor growth (Day 0 equal to 17 days after tumor cell injection). Animals were injected i.t. with PBS or 5×10^7 TCID50 of AdbCD-D314A on Days 0, 7, and 14, and then irradiated with 2 Gy on Days 1, 8 and 15 using a ^60Co gamma irradiator, and 400 mg/kg of 5-FC was i.p. administered at qd×5/week for 3 weeks starting on Day 1. Data points represent the mean change in tumor surface area relative to Day 0 for each group of animals.
To evaluate in vivo therapeutic efficacy of the combination of AdbCD-D314A/5-FC and radiation treatment, 16×10^6 MIA PaCa-2 tumor cells were resuspended 1:1 (v/v) in Matrigel (Becton Dickinson) and injected s.c. into female athymic nude mice. Treatment was started 17 days post-tumor cell injection at the time of established tumor growth, noted as Day 0. Animals were randomly divided into groups receiving different treatments: 1) AdbCD-D314A plus 5-FC; 2) AdbCD-D314A plus 5-FC in combination with radiation; 3) PBS plus 5-FC in combination with radiation; 4) PBS plus 5-FC. Two groups of mice (# 1 and 2) were injected i.t. with 5×10^7 TCID50 AdbCD-D314A on Days 0, 7, and 14. […] Tumor size was monitored twice a week using digital Vernier calipers. Tumor surface areas were calculated as width×length (mm^2).

[1] = test system: intracranial D54MG tumors; assay: Intracranial survival study; type: in vivo, athymic nude mice; details: for median survival time: FIG. 5
Procedure: D54MG human glioma cells (0.5×10^6 cells/mouse) were injected into the right frontal cortex of athymic nude mice (10 mice/group). Six days after tumor implantation (Day 0), a single dose of saline or 3.2×10^7 TCID50 AdCD-D314A was injected i.t. Mice then received 5 Gy fractions of radiation treatment on Days 1, 3, and 7 and 5-FC (500 mg/kg i.p. twice daily on Days 0-4, and 7-11) or saline and were subsequently monitored for survival.
D54MG human glioma cells (0.5×10^6 cells/mouse) were injected into the right frontal cortex of athymic nude mice (10 mice/group). Five days after tumor implantation, a single dose of PBS or 3.2×10^7 TCID50 AdbCD-D314A was injected i.t. on Day 5 Mice then received radiation treatment on Days 6, 9 and 13 at 2 or 5 Gy and 5-FC (500 mg/kg i.p. q2d×5/week for 3 weeks) and were subsequently monitored for survival.
D54MG tumors were established intracranially in athymic nude mice as described. Briefly, mice were anesthetized by i.p. administration of ketamine (20 mg/ml) and xylazine (0.3 mg/ml) in saline at 0.07 ml/10 g of body weight. A midline scalp incision was made, and a 0.5-mm burr hole was drilled 1.5-2.0 mm to the right of midline and 1 mm anterior to the coronal suture. D54MG cells were injected stereotactically at 0.5×10^6 cells (1×10^8/ml), using a 250 μl Hamilton syringe with a prepared 30 gauge needle mounted in a Stoelting stereotaxic apparatus. A plastic sleeve surrounding the needle allowed reproducible injections of tumor cells, saline or Ad to a depth of 2.5 mm. The needles were left in place for 2 min to minimize reflux of the tumor cells along the needle track. The scalp wounds were closed with Tissu-Mend glue to avoid scatter dose from metallic wound clips during radiation treatment. The mice were placed on a heating pad in sterile microisolator polycarbonate cages and allowed to awaken from anesthesia. Tumors were allowed to grow for 6 days before the start of treatment (Day 0). Animals were randomly divided into groups receiving different treatments: 3.2×10^7 TCID50 AdbCD-D314A in 10 μl saline; AdbCD-D314A in combination with radiation; AdbCD-D314A plus 5-FC; AdbCD-D314A plus 5-FC in combination with radiation, intratumoral saline followed by intraperitoneal 5-FU and intratumoral saline plus 5-FC and radiation. On the day after AdbCD-D314A injection, mice were treated i.p. with either saline or 5-FC twice daily at 500 mg/kg on Days 0 to 4, and 7 to 11 and monitored daily for survival. Radiation therapy consisted of 15 Gy ^60Co delivered in 5 Gy fractions to the whole brain, on Days 1, 3 and 7. Irradiated mice were immobilized in individual Lucite chambers with their heads positioned in an 8×32 cm collimated field. Animals were shielded with 3 cm of lead placed over the chamber, extending from behind the ears to the tail.

BXPC-3 = assay: 5-FU toxicity, MTS assay; type: cell-based; details: Homo sapiens, 120 h, 5 days
Procedure: (§1) Tumor cells (5×10^4) were plated in 96 well plates and allowed to adhere overnight. Cells were then incubated continuously in the presence of increasing concentrations of 5-FU (0-200 μg/ml) and assayed for toxicity using an MTS assay (Promega, Madison Wis.) after 5-days. ICx values were calculated as previously described. U251MG glioma cells were as sensitive to 5-FU as LS174T and WiDR colon carcinoma cells, while D54MG, U87MG and U118MG glioma cells and AsPC-1 pancreatic carcinoma cells were 3-fold less sensitive (Table 2).

U251MG = assay: 5-FU toxicity, MTS assay; type: cell-based; details: Homo sapiens, U-251, 120 h, 5 days
Procedure: as §1

LS174T = assay: 5-FU toxicity, MTS assay; type: cell-based; details: Homo sapiens, 120 h, 5 days
Procedure: as §1

WiDr = assay: 5-FU toxicity, MTS assay; type: cell-based; details: Homo sapiens, 120 h, 5 days
Procedure: as §1

D54MG = assay: 5-FC or 5-FU toxicity (MTS) in Ad-infected cells; type: cell-based; details: Homo sapiens, Table 14, MOI 0
Procedure: Next, cytosine deaminase was administered to glioma cells via the replication deficient adenovirus. Glioma cells plated in T25 flasks were infected with AdCMVCD at several multiplicities of infection (MOI 0-300 pfu/cell) for 1 h at 37° C. At twenty-four hours post-infection, cells were harvested, replated at 5×10^3 cells/well in 96 well plates, and allowed to adhere overnight. […]
To test this hypothesis, 5-FC toxicity (IC50) was compared in cells infected with AdCMVCD versus AdCDUPRT. […] In Table 13 mean 5-FC IC50 was obtained from 2-5 separate experiments. Cells were infected with AdCMVCD or AdCDUPRT at the indicated MOI (pfu/cell) for 1 h at 37° C. 5-FC toxicity was determined by MTS assay 5 days after drug addition.

SMILES | mean time to tumor doubling (MIA PaCa-2 xenografts; PBS plus 5-FC) | mean time to tumor doubling (MIA PaCa-2 xenografts; PBS plus 5-FC in combination with radiation) | median survival time ([1]; 5-FC) | median survival time ([1]; 5-FC plus radiation) | survival SF50 ([1]; FIG. 19, mock-infected, 5-FC) | survival ([1]; preliminary study, mock-infected, 5-FC) | IC20 (BXPC-3) | IC50 (BXPC-3) | IC80 (BXPC-3) | IC20 (U251MG) | IC50 (U251MG) | IC80 (U251MG) | IC20 (LS174T) | IC50 (LS174T) | IC80 (LS174T) | IC20 (WiDr) | IC50 (WiDr) | IC80 (WiDr) | IC50 (D54MG)
Nc1nc(=O)[nH]cc1F [5-FC, 5-fluorocytosine] | 14 days | 30 days | 17 days | 30 days | 23 days | 13 days |  |  |  |  |  |  |  |  |  |  |  |  | 
O=c1[nH]cc(F)c(=O)[nH]1 [5-FU, 5-fluorouracil] |  |  |  |  |  |  | 0.01 µg/mL (≈ 0.0769 µM) | 0.04 µg/mL (≈ 0.308 µM) | 0.69 µg/mL (≈ 5.3 µM) | 0.07 µg/mL (≈ 0.538 µM) | 0.38 µg/mL (≈ 2.92 µM) | 3.81 µg/mL (≈ 29.3 µM) | 0.11 µg/mL (≈ 0.846 µM) | 0.3 µg/mL (≈ 2.31 µM) | 2.33 µg/mL (≈ 17.9 µM) | 0.03 µg/mL (≈ 0.231 µM) | 0.13 µg/mL (≈ 0.999 µM) | 1.7 µg/mL (≈ 13.1 µM) | 1.3 µg/mL (≈ 9.99 µM)
